Results taken from patent US20240150360A1 (THE REGENTS OF THE UNIVERSITY OF MICHIGAN, priority 2021, published 2024).

Legend:
HL60 = assay: Cell growth inhibition in HL60; assay type: cell-based; conditions: Homo sapiens, HL-60, HL60 cells; read-out: Cell Growth Inhibition (IC50) HL60
P300 = molecular target: T1, P300 (Homo sapiens, UniProt Q09472); assay: P300 degradation in 22Rv1 cells (5 h); assay type: cell-based; conditions: 22Rv1 cells, 5 h; for Dmax: read-out: P300 Degradation (22Rv1, 5 h) DCmax
T1 construct: endogenous in cells; host or cells: 22Rv1 (ATCC CRL-2505) human prostate cancer cells
Source text: (§1) Biological Assays. […] Cells with 3-8 passages after purchase were used in experiments.

CBP = molecular target: T2, CBP (Homo sapiens, UniProt Q92793); assay: CBP degradation in 22Rv1 cells (5 h); assay type: cell-based; conditions: 22Rv1 cells, 5 h; for Dmax: 22Rv1, 5 h, read-out: CBP Degradation (22Rv1, 5 h) DCmax
T2 construct: endogenous in cells; host or cells: 22Rv1 (ATCC CRL-2505) human prostate cancer cells
Source text: as §1

22Rv1 cells = assay: Cell growth inhibition assay (CellTiter-Glo) in 22Rv1; assay type: cell-based, human; conditions: Homo sapiens, 22Rv1, 96 h, 22Rv1 cells, 96 h incubation; read-out: Cell Growth Inhibition (IC50) 22Rv1
How it was run: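 22Rv1 prostate cancer cells (passages 3-8, DMEM with 10% FBS) were seeded at 4000 cells/well with compound, 3-fold dilutions from 10 μM final. After 96 h at 37° C and 5% CO2, growth was read by CellTiter-Glo 2.0 luminescence.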

T1 sequence (Q09472 whole entry): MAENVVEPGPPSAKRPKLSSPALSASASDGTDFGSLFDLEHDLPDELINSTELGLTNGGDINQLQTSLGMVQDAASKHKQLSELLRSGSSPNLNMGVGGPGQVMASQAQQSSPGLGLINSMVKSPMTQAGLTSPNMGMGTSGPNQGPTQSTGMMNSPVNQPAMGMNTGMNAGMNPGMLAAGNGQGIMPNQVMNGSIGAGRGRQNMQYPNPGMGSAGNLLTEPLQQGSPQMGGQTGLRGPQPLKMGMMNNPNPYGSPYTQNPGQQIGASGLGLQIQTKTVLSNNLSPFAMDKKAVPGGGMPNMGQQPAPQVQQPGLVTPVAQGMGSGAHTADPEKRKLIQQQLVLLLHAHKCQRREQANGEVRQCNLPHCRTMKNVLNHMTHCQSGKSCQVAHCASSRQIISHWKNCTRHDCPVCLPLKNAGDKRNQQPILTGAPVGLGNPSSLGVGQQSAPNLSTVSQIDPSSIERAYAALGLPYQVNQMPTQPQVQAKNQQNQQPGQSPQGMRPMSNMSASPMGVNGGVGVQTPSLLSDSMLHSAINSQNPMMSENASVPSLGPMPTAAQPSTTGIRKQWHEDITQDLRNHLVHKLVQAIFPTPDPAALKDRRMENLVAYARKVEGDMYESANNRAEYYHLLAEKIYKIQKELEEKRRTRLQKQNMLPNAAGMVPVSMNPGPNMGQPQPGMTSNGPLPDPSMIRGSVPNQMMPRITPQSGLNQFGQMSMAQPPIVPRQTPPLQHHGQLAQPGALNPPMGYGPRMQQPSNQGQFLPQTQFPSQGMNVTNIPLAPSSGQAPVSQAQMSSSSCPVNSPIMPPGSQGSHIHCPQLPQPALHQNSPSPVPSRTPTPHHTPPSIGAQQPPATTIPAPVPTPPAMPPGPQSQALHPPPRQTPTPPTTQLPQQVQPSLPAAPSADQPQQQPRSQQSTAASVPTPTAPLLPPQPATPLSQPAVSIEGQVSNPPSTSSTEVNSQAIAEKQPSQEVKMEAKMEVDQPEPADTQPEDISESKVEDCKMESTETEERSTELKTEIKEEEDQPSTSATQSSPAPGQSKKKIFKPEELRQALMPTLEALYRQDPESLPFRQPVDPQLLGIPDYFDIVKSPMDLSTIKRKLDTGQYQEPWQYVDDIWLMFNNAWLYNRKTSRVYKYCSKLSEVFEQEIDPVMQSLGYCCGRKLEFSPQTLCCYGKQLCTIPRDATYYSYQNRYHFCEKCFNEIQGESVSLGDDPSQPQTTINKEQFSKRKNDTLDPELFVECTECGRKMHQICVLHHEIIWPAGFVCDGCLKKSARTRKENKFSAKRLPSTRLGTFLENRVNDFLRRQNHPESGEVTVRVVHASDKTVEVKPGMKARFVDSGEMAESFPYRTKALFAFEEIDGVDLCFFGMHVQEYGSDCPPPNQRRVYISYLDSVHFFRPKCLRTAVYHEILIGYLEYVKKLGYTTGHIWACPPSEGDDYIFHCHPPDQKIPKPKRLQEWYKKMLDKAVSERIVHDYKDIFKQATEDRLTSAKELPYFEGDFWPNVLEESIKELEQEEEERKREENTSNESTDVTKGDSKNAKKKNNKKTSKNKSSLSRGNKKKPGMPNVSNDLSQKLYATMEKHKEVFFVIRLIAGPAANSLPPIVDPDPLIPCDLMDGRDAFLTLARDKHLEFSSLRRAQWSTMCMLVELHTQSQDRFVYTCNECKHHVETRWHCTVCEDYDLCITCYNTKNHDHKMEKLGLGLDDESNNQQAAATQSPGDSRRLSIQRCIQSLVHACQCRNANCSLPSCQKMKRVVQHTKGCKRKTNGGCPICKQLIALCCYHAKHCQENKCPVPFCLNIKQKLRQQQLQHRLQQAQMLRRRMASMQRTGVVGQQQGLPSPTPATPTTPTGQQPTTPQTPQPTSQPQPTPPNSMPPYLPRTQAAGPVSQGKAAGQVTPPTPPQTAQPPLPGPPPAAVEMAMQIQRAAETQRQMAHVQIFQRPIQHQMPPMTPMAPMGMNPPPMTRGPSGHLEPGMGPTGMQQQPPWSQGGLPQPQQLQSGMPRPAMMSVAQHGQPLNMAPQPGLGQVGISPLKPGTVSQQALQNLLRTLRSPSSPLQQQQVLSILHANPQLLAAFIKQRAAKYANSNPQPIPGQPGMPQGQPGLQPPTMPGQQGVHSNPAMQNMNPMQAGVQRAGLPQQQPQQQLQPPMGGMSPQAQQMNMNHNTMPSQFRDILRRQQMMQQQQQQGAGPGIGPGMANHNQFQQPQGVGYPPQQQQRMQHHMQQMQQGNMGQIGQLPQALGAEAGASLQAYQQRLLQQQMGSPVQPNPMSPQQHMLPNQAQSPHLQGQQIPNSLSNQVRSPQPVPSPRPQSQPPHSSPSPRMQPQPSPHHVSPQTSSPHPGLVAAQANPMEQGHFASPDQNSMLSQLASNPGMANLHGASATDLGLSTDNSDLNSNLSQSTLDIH
T2 sequence (Q92793 whole entry): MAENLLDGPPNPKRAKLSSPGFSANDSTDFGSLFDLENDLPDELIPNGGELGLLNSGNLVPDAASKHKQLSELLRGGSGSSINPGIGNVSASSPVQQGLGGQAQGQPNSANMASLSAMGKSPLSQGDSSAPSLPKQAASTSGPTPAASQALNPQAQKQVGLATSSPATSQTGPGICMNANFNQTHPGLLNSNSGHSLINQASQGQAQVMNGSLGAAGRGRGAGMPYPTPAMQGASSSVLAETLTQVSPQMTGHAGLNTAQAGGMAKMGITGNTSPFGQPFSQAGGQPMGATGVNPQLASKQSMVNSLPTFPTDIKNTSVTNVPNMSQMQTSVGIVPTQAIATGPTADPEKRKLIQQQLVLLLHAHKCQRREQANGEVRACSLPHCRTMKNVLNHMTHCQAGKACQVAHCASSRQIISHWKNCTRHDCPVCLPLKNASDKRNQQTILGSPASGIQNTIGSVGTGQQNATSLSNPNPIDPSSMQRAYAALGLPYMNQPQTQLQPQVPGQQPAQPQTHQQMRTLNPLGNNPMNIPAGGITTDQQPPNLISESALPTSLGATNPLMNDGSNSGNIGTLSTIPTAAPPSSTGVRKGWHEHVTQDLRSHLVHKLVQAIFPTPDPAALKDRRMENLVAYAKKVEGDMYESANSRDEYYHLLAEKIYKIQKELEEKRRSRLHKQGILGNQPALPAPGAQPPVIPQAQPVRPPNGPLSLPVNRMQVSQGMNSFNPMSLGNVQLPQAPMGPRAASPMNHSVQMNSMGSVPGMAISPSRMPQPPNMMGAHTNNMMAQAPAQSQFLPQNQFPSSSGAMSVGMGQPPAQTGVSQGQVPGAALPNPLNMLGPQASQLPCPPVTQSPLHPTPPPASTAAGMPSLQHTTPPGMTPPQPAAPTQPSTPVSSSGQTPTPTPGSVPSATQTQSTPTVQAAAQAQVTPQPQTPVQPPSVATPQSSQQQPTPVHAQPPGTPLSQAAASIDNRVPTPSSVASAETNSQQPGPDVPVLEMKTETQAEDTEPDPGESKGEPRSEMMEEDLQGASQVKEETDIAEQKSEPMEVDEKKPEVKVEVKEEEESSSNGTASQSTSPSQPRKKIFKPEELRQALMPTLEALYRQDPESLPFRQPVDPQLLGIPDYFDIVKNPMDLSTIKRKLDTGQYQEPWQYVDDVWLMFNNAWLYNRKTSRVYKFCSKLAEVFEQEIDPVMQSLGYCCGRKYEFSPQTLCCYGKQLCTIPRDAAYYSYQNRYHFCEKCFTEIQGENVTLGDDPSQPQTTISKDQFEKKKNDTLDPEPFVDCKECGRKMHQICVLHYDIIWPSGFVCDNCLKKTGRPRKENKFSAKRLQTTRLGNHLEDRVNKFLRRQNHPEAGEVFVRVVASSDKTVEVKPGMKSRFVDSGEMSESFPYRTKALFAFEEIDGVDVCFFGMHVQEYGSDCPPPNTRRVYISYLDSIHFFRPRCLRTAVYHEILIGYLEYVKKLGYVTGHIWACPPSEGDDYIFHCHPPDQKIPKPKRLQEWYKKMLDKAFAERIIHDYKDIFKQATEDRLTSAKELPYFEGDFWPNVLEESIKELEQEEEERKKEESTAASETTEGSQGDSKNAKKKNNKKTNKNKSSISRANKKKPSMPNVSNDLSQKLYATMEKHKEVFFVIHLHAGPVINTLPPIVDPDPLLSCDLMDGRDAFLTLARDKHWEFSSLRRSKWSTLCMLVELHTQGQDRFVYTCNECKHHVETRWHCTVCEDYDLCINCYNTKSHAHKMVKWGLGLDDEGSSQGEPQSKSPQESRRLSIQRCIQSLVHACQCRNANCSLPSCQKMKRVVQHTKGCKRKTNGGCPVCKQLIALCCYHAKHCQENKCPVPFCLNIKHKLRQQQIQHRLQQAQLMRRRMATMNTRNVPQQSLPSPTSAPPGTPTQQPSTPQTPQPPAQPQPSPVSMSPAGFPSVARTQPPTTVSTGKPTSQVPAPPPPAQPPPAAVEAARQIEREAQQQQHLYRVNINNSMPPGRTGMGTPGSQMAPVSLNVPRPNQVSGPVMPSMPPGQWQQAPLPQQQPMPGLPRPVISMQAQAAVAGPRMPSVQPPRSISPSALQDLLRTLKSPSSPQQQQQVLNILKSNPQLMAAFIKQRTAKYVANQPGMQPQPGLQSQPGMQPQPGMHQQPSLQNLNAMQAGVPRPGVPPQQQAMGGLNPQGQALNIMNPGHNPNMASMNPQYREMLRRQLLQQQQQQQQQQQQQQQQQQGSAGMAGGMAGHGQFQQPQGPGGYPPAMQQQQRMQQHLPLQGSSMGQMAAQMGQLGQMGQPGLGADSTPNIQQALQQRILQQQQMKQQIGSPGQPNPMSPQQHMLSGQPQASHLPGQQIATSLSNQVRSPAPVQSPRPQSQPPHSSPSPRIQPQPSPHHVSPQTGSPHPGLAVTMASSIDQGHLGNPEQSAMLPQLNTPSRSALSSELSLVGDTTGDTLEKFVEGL

Compound	IC50 (HL60) [nM]	DC50 (P300) [nM]	Dmax (P300) [%]	Dmax (CBP) [%]	DC50 (CBP) [nM]	IC50 (22Rv1 cells) [nM]
CC(=O)N1CCc2c(c(N3CCCc4cc5c(cc43)CCCC5)nn2C2CCN(C(=O)CN3CCc4cc5c(cc4C3)C(=O)N(C3CCC(=O)NC3=O)C5=O)CC2)C1 (stereo not drawn) [CP-078, 6-(2-(4-(5-acetyl-3-(3,4,6,7,8,9-hexahydrobenzo[g]quinolin-1(2H)-yl)-4,5,6,7-tetrahydro-1H-pyrazolo[4,3-c]pyridin-1-yl)piperidin-1-yl)-2-oxoethyl)-2-(2,6-dioxopiperidin-3-yl)-5,6,7,8-tetrahydro-1H-pyrrolo[3,4-g]isoquinoline-1,3(2H)-dione]	< 1000	< 10	> 70	> 90	< 10	< 1000
CC(=O)N1CCc2c(c(N3CCCc4cc5c(cc43)C(C)CCC5)nn2C2CCN(C(=O)CN3Cc4cc5c(cc4C3)C(=O)N(C3CCC(=O)NC3=O)C5=O)CC2)C1 (stereo not drawn) [CP-079, 6-(2-(4-(5-acetyl-3-(9-methyl-3,4,6,7,8,9-hexahydrobenzo[g]quinolin-1(2H)-yl)-4,5,6,7-tetrahydro-1H-pyrazolo[4,3-c]pyridin-1-yl)piperidin-1-yl)-2-oxoethyl)-2-(2,6-dioxopiperidin-3-yl)-6,7-dihydropyrrolo[3,4-f]isoindole-1,3(2H,5H)-dione]	< 100	< 100	> 70	> 90	< 100	< 1000
CC(=O)N1CCc2cc3c(cc2C1)CCCN3c1nn(C2CCN(C(=O)CN3Cc4cc5c(cc4C3)C(=O)N(C3CCC(=O)NC3=O)C5=O)CC2)c2c1CN(C(C)=O)CC2 (stereo not drawn) [CP-080, 6-(2-(4-(5-acetyl-3-(7-acetyl-3,4,6,7,8,9-hexahydropyrido[3,4-g]quinolin-1(2H)-yl)-4,5,6,7-tetrahydro-1H-pyrazolo[4,3-c]pyridin-1-yl)piperidin-1-yl)-2-oxoethyl)-2-(2,6-dioxopiperidin-3-yl)-6,7-dihydropyrrolo[3,4-f]isoindole-1,3(2H,5H)-dione]	> 10000	< 10	> 70	> 70	< 10	> 10000
CC(=O)N1CCc2c(ccc3c2CCCN3c2nn(C3CCN(C(=O)CN4Cc5cc6c(cc5C4)C(=O)N(C4CCC(=O)NC4=O)C6=O)CC3)c3c2CN(C(C)=O)CC3)C1 (stereo not drawn) [CP-081, 6-(2-(4-(5-acetyl-3-(3-acetyl-1,3,4,8,9,10-hexahydro-3,7-phenanthrolin-7(2H)-yl)-4,5,6,7-tetrahydro-1H-pyrazolo[4,3-c]pyridin-1-yl)piperidin-1-yl)-2-oxoethyl)-2-(2,6-dioxopiperidin-3-yl)-6,7-dihydropyrrolo[3,4-f]isoindole-1,3(2H,5H)-dione]	> 10000	> 1000	< 50	< 50	> 1000	> 10000
CC(=O)N1CCc2c(c(-c3cccc4ccncc34)nn2C2CCN(C(=O)CN3Cc4cc5c(cc4C3)C(=O)N(C3CCC(=O)NC3=O)C5=O)CC2)C1 (stereo not drawn) [CP-082, 6-(2-(4-(5-acetyl-3-(isoquinolin-8-yl)-4,5,6,7-tetrahydro-1H-pyrazolo[4,3-c]pyridin-1-yl)piperidin-1-yl)-2-oxoethyl)-2-(2,6-dioxopiperidin-3-yl)-6,7-dihydropyrrolo[3,4-f]isoindole-1,3(2H,5H)-dione]	> 10000	> 1000	< 50	< 50	> 1000	> 10000

Second part, the compound after the results:

IC50 (HL60) [nM]	DC50 (P300) [nM]	Dmax (P300) [%]	Dmax (CBP) [%]	DC50 (CBP) [nM]	IC50 (22Rv1 cells) [nM]	Compound
> 10000	> 1000	< 50	< 50	> 1000	> 10000	CC(=O)N1CCc2c(c(N3CCCc4cc5c(cc43)C(C)(C)CCC5)nn2C2CCN(C(=O)CN3Cc4cc5c(cc4C3)C(=O)N(C3CCC(=O)NC3=O)C5=O)CC2)C1 (stereo not drawn) [CP-083, 6-(2-(4-(5-acetyl-3-(9,9-dimethyl-3,4,6,7,8,9-hexahydrobenzo[g]quinolin-1(2H)-yl)-4,5,6,7-tetrahydro-1H-pyrazolo[4,3-c]pyridin-1-yl)piperidin-1-yl)-2-oxoethyl)-2-(2,6-dioxopiperidin-3-yl)-6,7-dihydropyrrolo[3,4-f]isoindole-1,3(2H,5H)-dione]
> 10000	> 1000	< 50	< 50	> 1000	> 10000	CC(=O)N1Cc2c(N3CCCc4cc(-c5cnn(C)c5)c(C(F)F)cc43)nn(C3CCN(C(=O)CN4Cc5cc6c(cc5C4)C(=O)N(C4CCC(=O)NC4=O)C6=O)CC3)c2C(C)(C)C1 (stereo not drawn) [CP-084, 6-(2-(4-(5-acetyl-3-(7-(difluoromethyl)-6-(1-methyl-1H-pyrazol-4-yl)-3,4-dihydroquinolin-1(2H)-yl)-7,7-dimethyl-4,5,6,7-tetrahydro-1H-pyrazolo[4,3-c]pyridin-1-yl)piperidin-1-yl)-2-oxoethyl)-2-(2,6-dioxopiperidin-3-yl)-6,7-dihydropyrrolo[3,4-f]isoindole-1,3(2H,5H)-dione]
> 10000	> 1000	< 50	> 70	< 10	> 10000	CC(=O)N1Cc2c(N3CCCc4cc(-c5ccnn5C)c(C(F)F)cc43)nn(C3CCN(C(=O)CN4Cc5cc6c(cc5C4)C(=O)N(C4CCC(=O)NC4=O)C6=O)CC3)c2C(C)(C)C1 (stereo not drawn) [CP-085, 6-(2-(4-(5-acetyl-3-(7-(difluoromethyl)-6-(1-methyl-1H-pyrazol-5-yl)-3,4-dihydroquinolin-1(2H)-yl)-7,7-dimethyl-4,5,6,7-tetrahydro-1H-pyrazolo[4,3-c]pyridin-1-yl)piperidin-1-yl)-2-oxoethyl)-2-(2,6-dioxopiperidin-3-yl)-6,7-dihydropyrrolo[3,4-f]isoindole-1,3(2H,5H)-dione]
